Experimental data reported in patent US4076703A, “Dipeptide derivatives and their production” (Shionogi & Co., Ltd., priority 1974, dated 1978).

How the values were obtained:
[1] = system: DS male mice; test: Anti-pentylenetetrazol activity; details: for Anti-pentylenetetrazol activity, ED50: test compound given orally 60 minutes prior to 125 mg/kg s.c. pentylenetetrazol, complete protection against mortality, observed 2 hours; for times more potent than diazepam in the anti-pentylenetetrazol activity: relative to diazepam (Compound No. 5)
Protocol: This test was measured on a group of 10 DS male mice. […] In this test, the test compound was given orally 60 minutes prior to the administration of pentylenetetrazol. The observation was made for 2 hours after the administration of pentylenetetrazol. The criterion of anticonvulsant activity was determined as being complete protection against mortality. The convulsions were disregarded. Results were shown as ED50 [Goodman, et al.: J. Pharmacol., 108, 168 (1953)].

[2] = system: DS male mice; test: Taming activity (inhibition of electroshock-induced fighting); type: in vivo; details: for Taming activity ED50: administered 60 minutes prior to experiment, inhibition of fighting responses, 5 pairs of mice; for times more potent than diazepam in the taming activity: relative to diazepam (Compound No. 5)
Protocol: (§1) This test was measured on DS male mice.
These pairs of mice were selected in the morning and used for drug test in the afternoon. The test compound was administered to both mice of the pairs 60 minutes prior to the experiment. Results were obtained as the mean percentage of inhibition of fighting responses in a group of 5 pairs and shown by ED50 [Tedeschi, et al.: J. Pharmacol Exp. Thev., 125, 28-34 (1959)].

[3] = system: DS male mice; details: oral single dose, observed for 72 hours, Bliss method
Protocol: The test compound was orally administered to DS male mice in different single doses. For each dose, 10 mice were used, their weight ranging from 20 to 23 grams. […] The mortality was calculated by the Bliss method [Bliss: Ann.

[4] = system: DS male mice; test: Rotarod performance activity; type: in vivo; details: mouse falling from rod (5 rotations per minute) within less than 2 minutes
Protocol: 3. Rotarod performance activity:
as §1
The mouse was put on a scraped rod of wood, 3 cm in diameter, turning at the rate of five rotations per minute. The mice that could remain on the rod for 3 or more minutes in successive trails were selected and placed in a group of 10 mice for each dose. If the mouse fell down from the rod within less than 2 minutes, the test compound was considered to be effective. Results were shown by ED50 [Dunham, et al.: J. Am. Pharm. Assoc., 46, 208 (1957)].

[5] = relative to chlordiazepoxide (Compound No. 4)

SMILES	times more potent than chlordiazepoxide in the anti-pentylenetetrazol activity [1, 5]	Anti-pentylenetetrazol activity, ED50 [1]	times more potent than chlordiazepoxide in the taming activity [2, 5]	times more potent than diazepam in the anti-pentylenetetrazol activity [1]	Taming activity ED50 [2]	times more potent than diazepam in the taming activity [2]	Acute toxicity LD50 [3]	Rotarod performance ED50 [4]
CN(C(=O)CNC(=O)CN)c1ccc(Cl)cc1C(=O)c1ccccc1 [Compound No. 1, 2-benzoyl-4-chloro-N-methyl-N^α -glycyl-glycinanilide]	2 to 3 times	1.0 mg/kg	2 to 3 times	–	–	–	–	–
CN(C(=O)CNC(=O)CN)c1ccc(Cl)cc1C(=O)c1ccccc1Cl.O [Compound No. 2, 2-o-chlorobenzoyl-4-chloro-N-methyl-N^α -glycyl-glycinanilide hydrate]	–	0.58 mg/kg	–	2 to 4 times	3.0 mg/kg	2 to 4 times	–	–
CN(C(=O)CNC(=O)CN)c1ccc(Cl)cc1C(=O)c1ccccc1F.Cl [Compound No. 3, 2-o-fluorobenzoyl-4-chloro-N-methyl-N^α -glycyl-glycinanilide hydrochloride]	–	0.33 mg/kg	–	2 to 4 times	1.6 mg/kg	2 to 4 times	> 1000 mg/kg	17.0 mg/kg
CNC1=Nc2ccc(Cl)cc2C(c2ccccc2)=[N+]([O-])C1 [Compound No. 4, Chlordiazepoxide]	–	–	–	–	–	–	–	50.0 mg/kg
CN1C(=O)CN=C(c2ccccc2)c2cc(Cl)ccc21 [Compound No. 5, Diazepam]	–	–	–	–	–	–	–	9.03 mg/kg
